In PMC8178536 (Journal of Ethnopharmacology, 2021):
Read-outs that look alike come from different tables or passages of the source.

Columns and labels:
[1] = target: ACE2-RBD interaction (human ACE2 / SARS-CoV-2 S protein RBD) (Severe acute respiratory syndrome coronavirus 2, UniProt P0DTC2); assay: biochemical; type: binding, human; SARS-CoV-2
SARS-CoV-2 RBD = SARS-CoV-2 RBD (Severe acute respiratory syndrome coronavirus 2, UniProt P0DTC2); assay: biochemical; type: binding
[2] = test system: SARS-CoV-2 S protein-pseudoviruses, 293T-ACE2 cells; assay: microbe, parasite or virus in culture; type: cell-based
ACE2 = ACE2 (Homo sapiens, UniProt Q9BYF1); type: binding; conditions: SPR, two-fold serial dilutions
[3] = test system: SARS-CoV-2 S protein-pseudoviruses, Calu-3 cells; type: cell-based
[4] = Severe acute respiratory syndrome coronavirus 2, 293T/ACE2, read-out: IC50, infectivity of S protein-pseudoviruses to 293T-ACE2 cells

ACE2, sequence (Q9BYF1 18-740): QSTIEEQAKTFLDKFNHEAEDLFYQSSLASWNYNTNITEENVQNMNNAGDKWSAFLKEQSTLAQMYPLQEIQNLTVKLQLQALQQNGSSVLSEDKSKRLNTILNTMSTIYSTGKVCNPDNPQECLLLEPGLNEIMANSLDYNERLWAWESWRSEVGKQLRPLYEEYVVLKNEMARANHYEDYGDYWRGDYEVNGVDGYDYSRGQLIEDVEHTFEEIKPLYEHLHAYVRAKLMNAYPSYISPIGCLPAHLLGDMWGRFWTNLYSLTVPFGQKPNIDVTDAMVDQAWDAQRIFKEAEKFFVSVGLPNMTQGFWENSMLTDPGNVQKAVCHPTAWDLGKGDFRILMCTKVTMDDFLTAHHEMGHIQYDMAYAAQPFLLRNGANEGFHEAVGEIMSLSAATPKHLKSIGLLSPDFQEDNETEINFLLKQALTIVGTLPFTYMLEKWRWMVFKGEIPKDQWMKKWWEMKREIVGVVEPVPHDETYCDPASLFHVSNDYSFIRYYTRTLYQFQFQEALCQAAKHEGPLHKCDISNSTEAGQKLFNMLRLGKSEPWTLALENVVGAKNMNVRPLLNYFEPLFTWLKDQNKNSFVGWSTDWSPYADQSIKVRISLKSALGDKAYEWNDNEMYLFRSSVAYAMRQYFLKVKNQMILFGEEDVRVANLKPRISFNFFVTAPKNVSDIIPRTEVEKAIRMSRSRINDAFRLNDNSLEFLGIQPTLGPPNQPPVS

O=C(O)c1cc(O)c2cc(O)ccc2n1 [Compound 1, 4,6-dihydroxyquinoline-2-carboxylic acid]
IC50 [1]: 580 nM | Kd (SARS-CoV-2 RBD): 600 nM | IC50 [2, 4]: 1090 nM

O=C(O)c1cc(O)c2ccccc2n1 [Compound 2, 4-hydroxyquinoline-2-carboxylic acid]
IC50 [1]: 70 nM | Kd (SARS-CoV-2 RBD): 5280 nM | binding to immobilized ACE2 (ACE2): low or no binding | IC50 [2, 4]: 440 nM | infectivity of SARS-CoV-2 S protein-pseudoviruses to Calu-3 cells [3]: abolished the infectivity

COc1ccc2nc(C(=O)O)cc(O)c2c1 [Compound 3, 4-hydroxy-6-methoxyquinoline-2-carboxylic acid]
IC50 [1]: 150 nM | Kd (SARS-CoV-2 RBD): 5370 nM | IC50 [2, 4]: 750 nM

soluble recombinant human ACE2
IC50 ([2]; read-out: IC50, entry of S protein-pseudoviruses into 293T-ACE2 cells): 69.6 nM
